Experimental findings from patent publication US8466202B2, “Anthracenedione compounds” (Sunten Phytotech Co., Ltd., priority 2006, dated 2013) are described below.

For assay [1], the system named is healthy male S.D. rats. Nature of the assay: Feces production in rats over the 10-day period (Example 3). Format: in vivo, rat. The settings on record: Sennosides 3.35 mg/kg. The essentials:
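Male S.D. rats (n=6 per arm) received sennosides 3.35 mg/kg/day, STD05 or ARE at 8 or 24 mg/kg/day, single anthraquinones at 4 mg/kg/day, or CP at 8 mg/kg/day over 10 days, with untreated controls. On days 1, 5 and 10, rats in metabolic cages gave 24-h feces, which were weighed wet, counted and dried at 100° C. to derive water content.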

Assay [2] has as its system healthy male S.D. rats. Briefly: Intestinal motility test after the feces tests (Example 3). The settings on record: after the 10-day feces tests; control rats 61.1%; dose not stated. Format: in vivo, rat. How it is done: After the above-discussed feces tests, intestinal motility tests were conducted. Before the experiment, the rats were fasted for at least sixteen hours. The rats were then given the aforementioned drugs or extracts. After 3 hours, each rat was given 3 ml/kg of 0.5% methylcellulose solution-0.5% Evans blue dye. Each rat was sacrificed 30 minutes later and its abdominal cavity was cut open. The entire small intestine was extracted and carefully straightened. The entire stretch between the pylorous and cecum was measured as the small intestine length. The distance traveled by Evans blue dye along the intestines was also measured. During dissection, any unusual observations were recorded and photographed. The intestinal motility function was calculated in the following formula: Intestine motility=(Evans blue dye length/small intestine length)×100%. After finishing the feces tests, intestinal motility tests were conducted in the same manner described above. During dissection, any unusual observations were recorded and photographed. For comparison within the groups, a Post hoc Comparison was applied with p<0.05 indicating significant differences.

Where [3] appears, read: Group I, Day 1, STD05 8 mg/kg, ARE 8 mg/kg, Aloe-emodin 4 mg/kg, Rhein 4 mg/kg.
Where [4] appears, read: Group I, Day 5, STD05 8 mg/kg, ARE 8 mg/kg, Aloe-emodin 4 mg/kg, Rhein 4 mg/kg.
Setting [5] is: Group I, Day 10, STD05 8 mg/kg, ARE 8 mg/kg, Aloe-emodin 4 mg/kg, Rhein 4 mg/kg.
Where [6] appears, read: Group II, Day 1, STD05 24 mg/kg, ARE 24 mg/kg, Chrysophanol 4 mg/kg, Emodin 4 mg/kg.
Setting [7] is: Group II, Day 5, STD05 24 mg/kg, ARE 24 mg/kg, Chrysophanol 4 mg/kg, Emodin 4 mg/kg.
Setting [8] is: Group II, Day 10, STD05 24 mg/kg, ARE 24 mg/kg, Chrysophanol 4 mg/kg, Emodin 4 mg/kg.

In the case of Sennosides, the Pellet count in the assay with healthy male S.D. rats [1] (setting [3]) is listed as 101; with healthy male S.D. rats [1] (setting [4]) it was 119; in the assay on healthy male S.D. rats [1] (setting [5]) it was 146; in the assay on healthy male S.D. rats [1] (setting [6]) it was 134; in the assay on healthy male S.D. rats [1] (setting [7]) it was 118; in the assay with healthy male S.D. rats [1] (setting [8]) it was 132. Besides, the Water content with healthy male S.D. rats [1] (setting [3]) is on record as 45.69%; in the assay on healthy male S.D. rats [1] (setting [4]), 48.68%; with healthy male S.D. rats [1] (setting [5]), 57.4%; in the assay on healthy male S.D. rats [1] (setting [6]), 61.09%; in the assay with healthy male S.D. rats [1] (setting [7]) it was 61.53%; in the assay with healthy male S.D. rats [1] (setting [8]), 53.99%. The “Wet Weight” value with healthy male S.D. rats [1] (setting [3]) is on record as 18.72 g; in the assay on healthy male S.D. rats [1] (setting [4]) it was 26.16 g; with healthy male S.D. rats [1] (setting [5]) it was 36.38 g; with healthy male S.D. rats [1] (setting [6]), 36.19 g; in the assay with healthy male S.D. rats [1] (setting [7]), 36.42 g; in the assay on healthy male S.D. rats [1] (setting [8]), 36.21 g. Further, the intestinal motility in the assay with healthy male S.D. rats [2] turned out to be 67.9%.
